Assay results taken from patent publication US20110092591A1, “PHENYL-PRENYL DERIVATIVES, OF MARINE AND SYNTHETIC ORIGIN, FOR THE TREATMENT OF COGNITIVE, NEURODEGENERATIVE OR NEURONAL DISEASES OR DISORDERS” (NOSCIRA S.A., priority 2008, published 2011).
pIC50: −log10 of the molar value.

Legend:
Type in all cases: biochemical
[1] = target: T1, rhBACE-1 β-Secretase recombinant human (Homo sapiens, UniProt P56817); assay: BACE assay (FRET, fluorogenic peptide substrate); settings: for % BACE Activity: percentage of the enzyme activity (remaining)
T1 construct: purchased R&D Systems 931-AS
T1 sequence (P56817 46-457 limits assumed): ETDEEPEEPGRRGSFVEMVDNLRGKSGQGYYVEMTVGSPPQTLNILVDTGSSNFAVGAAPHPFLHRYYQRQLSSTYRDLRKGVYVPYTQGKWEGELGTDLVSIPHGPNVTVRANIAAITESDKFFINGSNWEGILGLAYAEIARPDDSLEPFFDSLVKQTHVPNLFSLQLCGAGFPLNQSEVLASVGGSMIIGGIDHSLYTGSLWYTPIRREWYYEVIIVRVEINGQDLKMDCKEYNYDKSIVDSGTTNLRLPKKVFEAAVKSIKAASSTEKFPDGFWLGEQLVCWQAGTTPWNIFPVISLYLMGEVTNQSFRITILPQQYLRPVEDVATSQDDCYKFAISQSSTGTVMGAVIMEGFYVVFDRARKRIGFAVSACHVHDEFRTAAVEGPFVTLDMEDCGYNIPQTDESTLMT
From the text: The aim of this assay is to determine if a compound, either synthetic or of marine origin, is a BACE-1 inhibitor, to avoid the formation of Aβ. This assay is based on FRET technology (Fluorescence Resonance Energy Transfer). FRET is used to measure cleavage of a peptide substrate, among other uses. […] When a substrate peptide cleavage occurs, the energy balance is broken and all the donor fluorescence can be observed. The increase in fluorescence is linearly related to the rate of proteolysis (Gordon, G W et al., 1998). In this assay the reaction occurs between an enzyme, purified BACE-1, and a fluorogenic peptidic substrate who present the “Swedish mutation”. The peptide cleavage by BACE-1 produces fluorescence energy and enzymatic activity can be quantified.
The reagents which are used in this assay are the following:
rhBACE-1 β-Secretase recombinant human (R&D Systems. Ref. 931-AS).
Fluorogenic Peptide Substrate IV (R&D Systems. Ref. ES004).
Beta-SECRETASE INHIBITOR H-4848. (BACHEM. Ref. H-4848.0001).
The assay is carried out in a 96 wells microplate. The final concentration of substrate is 3.5 μM per well, and the enzyme concentration is 0.5 μg/ml. The final volume of the assay is 100 μl per well and all reagents are diluted in Reaction Buffer.
The compounds are tested at a concentration of 10^−5 and 10^−6 M. The control in the assay is the commercial inhibitor β-Secretase inhibitor H-4848 from BACHEM, which is tested at 300 nM. All the samples and controls are studied by duplicate.
The plate is mixed gently and changes in the fluorescence are measured using a fluorimeter plate reader, with 320 nm excitation filter and 405 nm emission filter. The temperature should be preferably maintained between 25 and 30° C. Measurements are carried out every ten minutes during an hour. The first measure is subtracted from the last to calculate the fluorescence increase, evaluating the enzymatic activity. The 100% activity is calculated as the mean of the results of wells without sample or inhibitor.
In the cases where abnormal effects in fluorescence were detected, BACE inhibition activity was assayed using BACE-1 (beta-Secretase) FRET ASSAY KIT (Invitrogen, Ref. P2985). Fluorescence was measured with a fluorimeter plate reader, with 544 nm excitation filter and 580 nm emission filter.
Further information regarding this assay may be found in the following references, which are incorporated by reference into the present application: • Andrau, D et al; “BACE1- and BACE2-expressing human cells: characterization of beta-Amyloid precursor protein-derived catabolites, design of a novel fluorimetric assay, and identification of new in vitro inhibitors”. J Biol Chem. 2003 Jul. 11; 278(28):25859-66. • Gordon, G W et al; “Quantitative fluorescence resonance energy transfer measurements using fluorescence microscopy.” Biophys J. 1998 May; 74:2702-13.
The compounds of formula (I) of the present invention where submitted to the above indicated assay, in order to determine their BACE activity inhibition. The results are indicated in Table I, in percentage of the enzyme activity.

[2] = target: T2, Recombinant human glycogen synthase kinase 3 beta (Homo sapiens, UniProt P49841); assay: GSK-3 beta inhibition assay (33P-ATP, GS-2 peptide)
T2 sequence (P49841 whole entry): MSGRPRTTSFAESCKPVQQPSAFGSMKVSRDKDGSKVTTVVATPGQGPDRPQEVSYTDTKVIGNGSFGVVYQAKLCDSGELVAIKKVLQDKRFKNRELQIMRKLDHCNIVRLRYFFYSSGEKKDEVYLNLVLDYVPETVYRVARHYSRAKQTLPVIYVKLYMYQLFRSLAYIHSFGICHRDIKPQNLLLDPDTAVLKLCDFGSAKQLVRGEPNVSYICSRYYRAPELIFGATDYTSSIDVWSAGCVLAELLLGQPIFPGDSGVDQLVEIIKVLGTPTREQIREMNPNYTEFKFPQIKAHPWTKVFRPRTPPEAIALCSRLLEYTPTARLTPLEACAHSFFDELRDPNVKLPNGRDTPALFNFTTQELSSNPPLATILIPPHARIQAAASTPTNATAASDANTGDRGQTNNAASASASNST

[3] = target: T2, Recombinant human glycogen synthase kinase 3 beta; assay: as above; settings: 0.5 h, percentage of the enzyme activity (remaining), read-out: % Act. GSK-3 beta; for remaining activity at 25 µM: compound at 25 μM; for remaining activity at 50 µM: compound at 50 μM
Procedure: The GSK-3 beta activity of the compounds of formula (I) according to the present invention was determined by incubation of a mixture of recombinant human GSK-3 enzyme, a phosphate source and GSK-3 substrate in the presence and in the absence of the corresponding test compound, and by measuring the GSK-3 activity of this mixture. The compounds where tested at final concentrations of 25 and 50 μM.
Recombinant human glycogen synthase kinase 3 beta was assayed in MOPS 11 mM, pH 7.4, EDTA 0.2 mM, EGTA 1.25 mM, MgCl2 26.25 mM and sodium orthovanadate 0.25 mM in the presence of 62.5 μM of Phospho-Glycogen Synthase Peptide-2 (GS-2), 0.5 μCi gamma-^33P-ATP and unlabelled ATP at a final concentration of 12.5 μM. The final assay volume was 20 μl. After incubation for 30 minutes at 30° C., 15 μl aliquots were spotted onto P81 phosphocellulose papers. Filters were washed four times for at least 10 minutes each and counted with 1.5 ml of scintillation cocktail in a scintillation counter.
The compounds of formula (I) of the present invention where submitted to the above indicated assay, in order to determine their GSK-3 inhibition activity. The results are indicated in Table II, in percentage of the enzyme activity.

| % BACE Activity ([1]; compound at 1 μM) [%] | % BACE Activity ([1]; compound at 10 μM) [%] | pIC50 [2] | remaining activity at 25 µM [3] [%] | remaining activity at 50 µM [3] [%] | pIC50 ([1]; given in M) | Compound |
| --- | --- | --- | --- | --- | --- | --- |
| 45 ± 21 | 0 | 5.35 | 5.43 | 2.82 | – | CC(C)=CCC/C(C)=C/CC/C(C)=C/CC/C(C)=C/Cc1cc(C(=O)O)ccc1O [Compound 1, (2E,6E,10E)-4-Hydroxy-3-(3,7,11,15-tetramethyl-hexadeca-2,6,10,14-tetraenyl)-benzoic acid] |
| 100 | 13 ± 14 | 4.90 | 37.7 | 5.04 | – | CC(C)=CCC/C(C)=C/CC/C(C)=C/CC/C(C)=C/Cc1cc(O)ccc1O [Compound 2] |
| – | – | 4.25 | 52.9 | 4.19 | – | C/C(=C\CC/C(C)=C/CC/C(C)=C/Cc1cc(C(=O)O)ccc1O)C/C=C/C(C)(C)O [Compound 3] |
| – | – | 5.00 | 17.8 | 17.7 | – | CC(C)=CCC/C(C)=C/CC/C(C)=C/CC/C(C)=C/CC/C(C)=C/Cc1cc(O)ccc1O [Compound 4] |
| – | – | – | – | 70.8 | – | COC(=O)c1ccc(O)c(C/C=C(\C)CC/C=C(\C)CC/C=C(\C)CCC=C(C)C)c1 [Compound 5] |
| 100 | 100 | – | 71.6 | 78 | – | CC(C)=CCc1cc(C(=O)O)ccc1O [Compound 6] |
| 100 | 42 ± 5 | 4.80 | 33.5 | 3.08 | – | COCOc1ccc(C=O)cc1C/C=C(\C)CCC=C(C)C [Compound 8, (2E)-3-(3,7-dimethyl-octa-2,6-dienyl)-4-methoxymethoxy-benzaldehyde] |
| 94 ± 22 | 60 ± 16 | – | 61.3 | 5.75 | 4.43 | COCOc1ccc(C=O)cc1C/C=C(\C)CC/C=C(\C)CCC=C(C)C [Compound 9, (2E,6E)-4-methoxymethoxy-3-(3,7,11-trimethyl-dodeca-2,6,10-trienyl)-benzaldehyde] |
| 91 ± 6 | 44 ± 12 | 5.07 | 12.1 | 1.07 | – | CC(C)=CCC/C(C)=C/Cc1cc(C=O)ccc1O [Compound 11] |
| 57 ± 2 | 41 ± 4 | 5.10 | 9.26 | 0.95 | – | CC(C)=CCC/C(C)=C/CC/C(C)=C/Cc1cc(C=O)ccc1O [Compound 12] |
| 100 | 88 ± 8.5 | 4.76 | 52 | 4.71 | – | CC(C)=CCC/C(C)=C/CC/C(C)=C/CC/C(C)=C/Cc1cc(C=O)ccc1O [Compound 13] |
| 100 | 84 ± 6 | – | 75.7 | 60.3 | – | CC(C)=CCC/C(C)=C/Cc1cc(C(=O)O)ccc1O [Compound 14] |
